The assay concerns the target saliva enzymes (esterase activity). Briefly: Inhibition of saliva enzymes (esterase activity) for detection of chemicals in water. The class given is biochemical, human. As to the method: The presence of chemicals in milk, water, urine and other biological fluids are detected using saliva enzymes. The detection limit for the chemicals depends on the chemical potency and the number of chemicals present in the sample. The data presented here using saliva enzymes indicates a remarkably low concentration of des N-isofenphos (DNIO) in water (3 ng/mL) is detectable using the saliva enzyme method. A 50% inhibition of esterase activity is produced at 3 ng/mL DNIO. In this procedure, the sample is passed through […] solid phase absorption column (C-18) to extract and concentrate the chemicals as described by Knaak et al. (1993). The retention of the chemicals on C-18 column depends on their lipid solubility. The non-polar compounds usually have the highest retention. Then, the chemical is eluted with 1 mL of alcohol. A 0.1 mL of the elute is tested for the inhibition of saliva enzymes as described in this application. Toxicants in solid environmental samples, fruit and vegetables can be extracted with water or proper solvent. Samples of the extract are tested for enzymes inhibition. The inhibition of saliva enzyme indicates the presence of toxicant(s) in the sample and further analysis is needed to identify the specific chemical(s).

`CCOP(N)(=O)Oc1ccccc1C(=O)OC(C)C` (stereo not shown) [DNIO, des N-Isofenphos-oxon]: the “concentration producing 50% inhibition of esterase activity” value was 3 ng/mL.

The values above are taken from patent US6537744B1, “Use of biomarkers in saliva to evaluate the toxicity of agents and the function of tissues in both biomedical and environmental applications” (priority 1995, dated 2003).
